Results on one compound are retold here after patent US20250382266A1, “5-HT2A RECEPTOR LIGANDS” (Psilera Inc., priority 2022, published 2025).

Each structure is given as a SMILES string.

The target in one experiment is T1, 5-HT1A (Homo sapiens, UniProt P08908).
T1 sequence (P08908 1-422): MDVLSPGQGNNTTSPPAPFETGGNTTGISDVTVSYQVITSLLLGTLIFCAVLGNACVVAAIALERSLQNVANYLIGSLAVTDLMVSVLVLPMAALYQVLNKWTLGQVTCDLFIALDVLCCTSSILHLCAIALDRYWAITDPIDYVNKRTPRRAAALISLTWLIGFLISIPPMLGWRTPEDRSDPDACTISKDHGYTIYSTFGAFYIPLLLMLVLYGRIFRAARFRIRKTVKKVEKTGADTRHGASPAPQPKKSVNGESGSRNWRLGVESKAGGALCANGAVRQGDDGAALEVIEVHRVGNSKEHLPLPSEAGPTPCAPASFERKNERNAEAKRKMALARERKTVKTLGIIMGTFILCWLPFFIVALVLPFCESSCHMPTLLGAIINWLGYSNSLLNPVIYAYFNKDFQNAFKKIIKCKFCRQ
Nature of the experiment: radioligand binding at 5-HT1A. As to conditions: 50 nM; radioligand [3H]8-OH-DPAT. The method, then:
(§1) In vitro pharmacological assessment of this compound (N-(2-(1H-indol-3-yl)ethyl)-2-(1H-indol-3-yl)-N-methylethan-1-amine) was performed using radioligand binding at various serotonergic and sigma receptors. The results appear in table 2 below

A further experiment deals with 5-HT2A (Homo sapiens, UniProt P28223). Nature of the experiment: radioligand binding at 5-HT2A. To be noted: 50 nM; radioligand [3H]ketanserin. The method, then: as §1
5-HT2A, sequence (P28223 whole entry): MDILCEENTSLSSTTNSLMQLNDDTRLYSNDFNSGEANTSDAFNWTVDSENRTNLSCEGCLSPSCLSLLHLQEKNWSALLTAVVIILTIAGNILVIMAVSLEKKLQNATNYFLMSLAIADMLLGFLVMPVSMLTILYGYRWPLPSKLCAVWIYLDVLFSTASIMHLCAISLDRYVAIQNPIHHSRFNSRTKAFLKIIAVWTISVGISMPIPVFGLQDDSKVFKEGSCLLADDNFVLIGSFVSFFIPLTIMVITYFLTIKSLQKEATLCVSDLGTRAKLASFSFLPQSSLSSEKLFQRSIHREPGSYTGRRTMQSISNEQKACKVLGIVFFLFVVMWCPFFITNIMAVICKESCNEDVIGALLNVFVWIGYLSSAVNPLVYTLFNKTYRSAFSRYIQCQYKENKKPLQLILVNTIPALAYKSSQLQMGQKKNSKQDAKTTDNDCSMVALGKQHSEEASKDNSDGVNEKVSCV
Another experiment addresses 5-HT2B (Homo sapiens, UniProt P41595). Nature of the experiment: radioligand binding at 5-HT2B. As to conditions: 50 nM; radioligand [3H]mesulergine. The method, then:
as §1

The target of another experiment is T2, 5-HT2C (Homo sapiens, UniProt P28335).
T2 sequence (P28335 33-458): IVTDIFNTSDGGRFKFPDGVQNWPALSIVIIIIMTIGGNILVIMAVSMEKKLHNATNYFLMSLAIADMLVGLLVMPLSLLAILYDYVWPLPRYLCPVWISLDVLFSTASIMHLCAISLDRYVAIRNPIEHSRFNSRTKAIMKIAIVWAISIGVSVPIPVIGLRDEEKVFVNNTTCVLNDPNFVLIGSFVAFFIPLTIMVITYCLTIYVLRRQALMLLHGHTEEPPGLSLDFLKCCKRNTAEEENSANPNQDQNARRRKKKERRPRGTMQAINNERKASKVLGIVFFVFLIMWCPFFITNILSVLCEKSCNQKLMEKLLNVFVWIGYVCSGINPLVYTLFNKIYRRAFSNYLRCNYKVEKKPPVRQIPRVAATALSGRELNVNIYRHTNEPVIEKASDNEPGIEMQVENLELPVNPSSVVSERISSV
In words: radioligand binding at 5-HT2C. As to conditions: 50 nM; radioligand [3H]mesulergine. The method, then: as §1

For another experiment, the target named is 5-HT6 (Homo sapiens, UniProt P50406). In words: radioligand binding at 5-HT6. As to conditions: 50 nM; radioligand [3H]LSD. How it is done:
as §1

A further experiment deals with 5-HT7 (Homo sapiens, UniProt P34969). Nature of the experiment: radioligand binding at 5-HT7. As to conditions: 50 nM; radioligand [3H]LSD. How it is done:
as §1

The target in the next experiment is Sigma 1 (Homo sapiens, UniProt Q99720). In words: radioligand binding at Sigma 1. To be noted: 500 nM; radioligand [3H](+)pentazocine. How it is done:
as §1

The target of a further experiment is Sigma 2 (Homo sapiens, UniProt Q5BJF2). Nature of the experiment: radioligand binding at Sigma 2. As to conditions: 500 nM; radioligand [3H]DTG + (+)pentazocine. How it is done:
as §1

5-HT2B, sequence (P41595 whole entry, species assumed): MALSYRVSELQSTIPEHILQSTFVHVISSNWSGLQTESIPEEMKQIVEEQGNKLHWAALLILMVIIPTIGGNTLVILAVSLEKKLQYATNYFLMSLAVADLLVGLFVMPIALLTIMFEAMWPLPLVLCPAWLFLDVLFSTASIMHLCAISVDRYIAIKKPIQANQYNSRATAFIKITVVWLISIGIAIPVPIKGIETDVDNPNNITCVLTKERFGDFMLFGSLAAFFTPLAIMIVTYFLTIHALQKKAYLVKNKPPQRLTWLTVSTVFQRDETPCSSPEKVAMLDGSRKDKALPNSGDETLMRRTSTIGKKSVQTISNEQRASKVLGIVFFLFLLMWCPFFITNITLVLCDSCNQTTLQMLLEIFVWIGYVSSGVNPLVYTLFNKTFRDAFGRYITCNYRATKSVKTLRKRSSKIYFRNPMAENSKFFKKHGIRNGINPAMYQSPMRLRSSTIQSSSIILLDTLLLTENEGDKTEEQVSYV
Sigma 2, sequence (Q5BJF2 whole entry): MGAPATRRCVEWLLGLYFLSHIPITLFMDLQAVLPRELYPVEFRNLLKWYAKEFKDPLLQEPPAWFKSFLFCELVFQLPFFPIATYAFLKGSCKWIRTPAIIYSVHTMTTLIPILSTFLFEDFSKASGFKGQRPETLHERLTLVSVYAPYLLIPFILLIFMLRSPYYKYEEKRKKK
Sigma 1, sequence (Q99720 whole entry): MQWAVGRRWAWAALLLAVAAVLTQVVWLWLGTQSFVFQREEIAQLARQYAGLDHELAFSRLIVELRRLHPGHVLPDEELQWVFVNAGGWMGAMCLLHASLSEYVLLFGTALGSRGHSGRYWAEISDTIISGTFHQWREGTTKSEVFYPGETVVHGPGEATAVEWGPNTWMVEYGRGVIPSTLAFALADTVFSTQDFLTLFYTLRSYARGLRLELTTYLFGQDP
5-HT6, sequence (P50406 whole entry, species assumed): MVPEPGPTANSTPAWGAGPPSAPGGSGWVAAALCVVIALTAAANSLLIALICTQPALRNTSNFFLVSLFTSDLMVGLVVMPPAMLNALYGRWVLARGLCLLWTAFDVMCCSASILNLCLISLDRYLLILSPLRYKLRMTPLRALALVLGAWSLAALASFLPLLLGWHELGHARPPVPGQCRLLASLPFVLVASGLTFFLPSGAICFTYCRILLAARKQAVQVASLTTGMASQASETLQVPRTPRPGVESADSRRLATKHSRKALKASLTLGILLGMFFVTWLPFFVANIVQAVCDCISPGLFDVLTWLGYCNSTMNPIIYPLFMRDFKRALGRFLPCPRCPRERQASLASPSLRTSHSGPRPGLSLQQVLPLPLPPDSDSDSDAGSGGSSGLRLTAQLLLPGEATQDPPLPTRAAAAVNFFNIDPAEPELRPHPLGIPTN
5-HT7, sequence (P34969 whole entry, species assumed): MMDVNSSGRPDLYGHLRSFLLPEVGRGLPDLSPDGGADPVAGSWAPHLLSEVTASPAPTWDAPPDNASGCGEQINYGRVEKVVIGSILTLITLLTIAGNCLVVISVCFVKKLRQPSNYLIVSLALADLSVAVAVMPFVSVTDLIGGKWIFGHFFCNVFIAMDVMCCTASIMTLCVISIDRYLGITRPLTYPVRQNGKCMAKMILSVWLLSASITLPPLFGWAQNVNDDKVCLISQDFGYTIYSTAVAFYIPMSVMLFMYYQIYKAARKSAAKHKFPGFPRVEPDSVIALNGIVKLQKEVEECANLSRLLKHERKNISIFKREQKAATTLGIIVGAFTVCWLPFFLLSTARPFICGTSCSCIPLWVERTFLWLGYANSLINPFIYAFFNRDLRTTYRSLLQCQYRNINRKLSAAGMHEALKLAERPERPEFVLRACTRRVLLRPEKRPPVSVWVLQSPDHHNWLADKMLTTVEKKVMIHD

Take `CN(CCc1c[nH]c2ccccc12)CCc1c[nH]c2ccccc12` [Example 1, N-(2-(1H-indol-3-yl)ethyl)-2-(1H-indol-3-yl)-N-methylethan-1-amine]: the inhibition – broadly, the change of the read-out against control, counted positive when it falls – at 0.05 µM at 5-HT1A stood at 70.9%; on 5-HT2A it was 82.7%; on 5-HT2B, 96.8%; on 5-HT2C it was 72.8%; at 5-HT6, 26.3%; on 5-HT7, 79.7%. The inhibition at 0.5 µM at Sigma 1 was determined as 21.7%; at Sigma 2, 26.1%.
